For 16 compounds, IC50, solubility and fraction unbound results are on record in US20260217698A1 (BEYANG THERAPEUTICS CO., LTD., priority 2022, published 2026).

One series addresses T1, EGFR (Homo sapiens, UniProt P00533).
T1 construct: purchased Carna 08-115
Description: Kinase inhibition, Mobility Shift Assay/IMAP, EGFR. It is filed as biochemical. The procedure, abridged:
(§1)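 Substrate conversion (phosphorylated vs non-phosphorylated) read by mobility shift on Caliper EZ Reader II and converted to % inhibition relative to no-enzyme and DMSO controls. IC50 fitted from % inhibition versus log compound concentration.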

Series [1] in a line: Solubility test in buffer, LC-MS. It is filed as physicochemical. To be noted: aqueous buffer, thermodynamic from solid, room temperature, shaking 8 h, pH not given (method: pH 2.0, 6.5, 7.4). The procedure:
Accurately weigh 3 portions of about 2 mg of the compound, and add appropriate volumes of buffers with the pHs of 2.0, 6.5, and 7.4 respectively to obtain a solution with a concentration of 2 mg/mL. After sonication for 10 min, fix them on a shaker and shaking for 8 h at room temperature. After shaking, sonicate for 10 min and centrifuge for 15 min at 13,000 rpm. Pipette 0.1 mL of supernatant into a new tube, shake and rinse it with 5 mL, and discard the liquid. Transfer 0.5 mL of the supernatant again to a new tube, centrifuge it for 15 min at 13,000 rpm, then collect the supernatant (if necessary, dilute with water) and analyze it by LC-MS. The sample concentrations at 3~5 points are subjected to fitting and reticle for quantification.

The target of the next series is VEGFR2 (Homo sapiens, UniProt P35968). Description: Kinase inhibition, Mobility Shift Assay/IMAP, VEGFR2. The format is biochemical. Further details: purchased Carna 08-191. The procedure, abridged:
as §1

The target in the next series is T2, TIE2 (Homo sapiens, UniProt Q02763).
T2 construct: purchased BPS 40270
Kind of series: Kinase inhibition, Mobility Shift Assay/IMAP, TIE2. It is filed as biochemical. The source says:
(§2) This assay directly monitored the ability of compounds to inhibit kinase phosphorylation by measuring non-phosphorylated and phosphorylated substrates in kinase reactions by using Mobility Shift Assays/IMAP™ analysis.
(§3) Read the conversion ratio data on CaliperEZ Reader II. Convert conversion rates into inhibition ratio data.
(§4) “Min” indicates the readout of the control well without the addition of enzymes; and “Max” indicates the readout of the control well with the addition of DMSO Fit IC50 values with XL Fit excel add-in version […].
(§5) X indicates the log value of compound concentration, and Y indicates the inhibition ratio (% inhibition).

In the next series the test system is melanin. Description: Binding capacity of compounds to melanin. The settings on record: cuttlefish (Sepia officinalis), melanin suspension (1 mg/mL); 1 mg/mL melanin in PBS pH 7.4, 2 μM compound, 2 h at 37° C.; read-out: Fu % (percentage of free drug). It is filed as in vitro ADME, cuttlefish (Sepia officinalis). The procedure, abridged:
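Compound (2 μM final) incubated with washed Sepia melanin (1 mg/mL, PBS pH 7.4) 2 h at 37° C with shaking; PBS with 0.1% BSA served as blank. Supernatants quantified by LC-MS/MS; bound fraction Fb derived from melanin versus blank concentration.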

The next series concerns the target T3, VEGFR1 (Homo sapiens, UniProt P17948).
T3 construct: purchased Invitrogen PR6731B
Description: Kinase inhibition, Mobility Shift Assay/IMAP, VEGFR1. The format is biochemical.
Description: as §2, §3, §4, §5

The next series deals with T4, VEGFR3 (Homo sapiens, UniProt P35916).
T4 construct: purchased Invitrogen PV4129
Kind of series: Kinase inhibition, Mobility Shift Assay/IMAP, VEGFR3. It is filed as biochemical.
Description: as §2, §3, §4, §5

Converted amounts (≈) assume the structure as drawn.

T1 sequence (P00533 669-1210 limits assumed): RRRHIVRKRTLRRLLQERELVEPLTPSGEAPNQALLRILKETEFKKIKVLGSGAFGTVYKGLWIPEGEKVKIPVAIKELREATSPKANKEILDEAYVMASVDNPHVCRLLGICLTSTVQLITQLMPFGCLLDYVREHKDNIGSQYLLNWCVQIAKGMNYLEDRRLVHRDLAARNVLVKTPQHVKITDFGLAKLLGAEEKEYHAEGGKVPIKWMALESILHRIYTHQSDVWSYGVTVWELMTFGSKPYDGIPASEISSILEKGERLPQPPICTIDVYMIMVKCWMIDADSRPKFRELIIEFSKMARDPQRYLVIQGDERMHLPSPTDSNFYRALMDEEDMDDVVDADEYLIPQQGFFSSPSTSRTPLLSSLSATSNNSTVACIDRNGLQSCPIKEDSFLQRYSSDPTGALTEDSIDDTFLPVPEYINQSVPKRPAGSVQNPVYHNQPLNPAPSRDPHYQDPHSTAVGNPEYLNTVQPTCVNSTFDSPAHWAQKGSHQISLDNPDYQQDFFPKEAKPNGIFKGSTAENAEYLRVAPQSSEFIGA
T4 sequence (P35916 25-1363): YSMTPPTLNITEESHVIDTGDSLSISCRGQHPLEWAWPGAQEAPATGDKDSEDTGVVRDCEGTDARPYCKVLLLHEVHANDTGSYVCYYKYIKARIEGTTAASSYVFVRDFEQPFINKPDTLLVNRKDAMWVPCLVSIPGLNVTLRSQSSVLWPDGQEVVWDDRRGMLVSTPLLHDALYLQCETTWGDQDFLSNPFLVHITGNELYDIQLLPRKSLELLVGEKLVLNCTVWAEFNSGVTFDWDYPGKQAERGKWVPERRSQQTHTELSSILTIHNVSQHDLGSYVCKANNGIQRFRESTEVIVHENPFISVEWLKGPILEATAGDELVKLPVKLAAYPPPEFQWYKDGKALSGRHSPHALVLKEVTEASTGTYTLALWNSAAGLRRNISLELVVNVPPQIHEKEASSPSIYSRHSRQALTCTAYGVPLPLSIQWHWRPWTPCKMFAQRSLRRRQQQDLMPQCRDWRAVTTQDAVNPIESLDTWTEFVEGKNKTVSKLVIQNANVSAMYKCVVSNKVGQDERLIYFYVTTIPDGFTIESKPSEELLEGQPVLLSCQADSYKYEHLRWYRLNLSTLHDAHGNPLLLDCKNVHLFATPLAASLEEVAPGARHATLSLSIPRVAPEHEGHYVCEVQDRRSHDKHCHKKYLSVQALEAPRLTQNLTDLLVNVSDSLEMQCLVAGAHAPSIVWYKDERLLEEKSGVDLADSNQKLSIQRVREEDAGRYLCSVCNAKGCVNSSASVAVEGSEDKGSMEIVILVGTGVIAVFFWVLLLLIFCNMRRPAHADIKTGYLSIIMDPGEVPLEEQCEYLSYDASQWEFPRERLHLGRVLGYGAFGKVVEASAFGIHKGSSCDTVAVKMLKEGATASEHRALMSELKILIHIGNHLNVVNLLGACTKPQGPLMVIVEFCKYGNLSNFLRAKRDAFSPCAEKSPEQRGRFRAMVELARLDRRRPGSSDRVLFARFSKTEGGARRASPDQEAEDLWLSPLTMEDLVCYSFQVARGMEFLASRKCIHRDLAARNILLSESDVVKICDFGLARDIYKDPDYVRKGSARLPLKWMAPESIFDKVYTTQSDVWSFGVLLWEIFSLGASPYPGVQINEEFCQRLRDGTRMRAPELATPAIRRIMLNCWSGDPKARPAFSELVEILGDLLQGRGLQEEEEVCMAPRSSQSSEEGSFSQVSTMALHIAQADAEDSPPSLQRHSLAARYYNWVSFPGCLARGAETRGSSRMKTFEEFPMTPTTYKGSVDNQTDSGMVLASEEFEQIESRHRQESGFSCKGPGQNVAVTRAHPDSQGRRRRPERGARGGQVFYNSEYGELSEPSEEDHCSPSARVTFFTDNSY
Chain of VEGFR2 (P35968 790-1356 limits assumed): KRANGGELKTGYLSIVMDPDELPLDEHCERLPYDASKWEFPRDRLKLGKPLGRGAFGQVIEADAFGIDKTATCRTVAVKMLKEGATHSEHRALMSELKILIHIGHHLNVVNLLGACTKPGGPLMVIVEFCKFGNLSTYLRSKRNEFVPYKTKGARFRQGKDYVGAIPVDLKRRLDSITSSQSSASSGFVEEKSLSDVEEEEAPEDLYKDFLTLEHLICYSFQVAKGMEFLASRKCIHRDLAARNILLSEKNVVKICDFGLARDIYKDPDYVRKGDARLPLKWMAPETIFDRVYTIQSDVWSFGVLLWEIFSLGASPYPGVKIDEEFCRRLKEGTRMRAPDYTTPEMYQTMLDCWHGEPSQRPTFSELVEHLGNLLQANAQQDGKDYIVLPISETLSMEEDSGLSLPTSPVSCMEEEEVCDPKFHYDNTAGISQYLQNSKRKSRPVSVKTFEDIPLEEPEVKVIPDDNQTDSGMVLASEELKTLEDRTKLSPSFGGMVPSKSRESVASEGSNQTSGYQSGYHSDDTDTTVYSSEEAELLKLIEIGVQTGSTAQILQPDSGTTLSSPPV
T2 sequence (Q02763 23-1124): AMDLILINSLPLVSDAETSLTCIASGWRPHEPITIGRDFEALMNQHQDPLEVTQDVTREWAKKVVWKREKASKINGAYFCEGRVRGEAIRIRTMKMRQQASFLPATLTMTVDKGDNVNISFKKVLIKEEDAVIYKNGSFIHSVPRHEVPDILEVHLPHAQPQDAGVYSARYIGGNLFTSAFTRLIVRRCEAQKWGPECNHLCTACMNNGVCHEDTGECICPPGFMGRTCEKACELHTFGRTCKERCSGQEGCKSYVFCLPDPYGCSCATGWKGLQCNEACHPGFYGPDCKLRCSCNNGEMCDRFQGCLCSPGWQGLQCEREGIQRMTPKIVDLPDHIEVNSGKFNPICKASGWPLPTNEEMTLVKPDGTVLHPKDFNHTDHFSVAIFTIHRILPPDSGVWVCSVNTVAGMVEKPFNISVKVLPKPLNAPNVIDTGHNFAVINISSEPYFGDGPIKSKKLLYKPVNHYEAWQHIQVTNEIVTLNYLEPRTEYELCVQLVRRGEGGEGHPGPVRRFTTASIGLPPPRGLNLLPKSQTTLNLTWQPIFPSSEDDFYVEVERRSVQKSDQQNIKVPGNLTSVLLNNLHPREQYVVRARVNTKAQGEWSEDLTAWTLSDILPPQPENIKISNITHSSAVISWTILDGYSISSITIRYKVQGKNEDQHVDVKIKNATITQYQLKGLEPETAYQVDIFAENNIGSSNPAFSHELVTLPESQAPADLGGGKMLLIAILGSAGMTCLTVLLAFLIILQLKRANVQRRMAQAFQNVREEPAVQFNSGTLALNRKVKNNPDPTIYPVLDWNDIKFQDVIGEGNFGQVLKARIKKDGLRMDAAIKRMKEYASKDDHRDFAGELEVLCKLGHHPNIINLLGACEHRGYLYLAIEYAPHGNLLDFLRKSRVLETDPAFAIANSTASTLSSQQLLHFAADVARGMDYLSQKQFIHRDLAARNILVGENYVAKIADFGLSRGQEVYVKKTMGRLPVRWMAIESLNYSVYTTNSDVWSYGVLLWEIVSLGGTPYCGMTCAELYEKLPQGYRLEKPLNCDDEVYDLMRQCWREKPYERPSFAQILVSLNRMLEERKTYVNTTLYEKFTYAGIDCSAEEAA
T3 sequence (P17948 27-1338): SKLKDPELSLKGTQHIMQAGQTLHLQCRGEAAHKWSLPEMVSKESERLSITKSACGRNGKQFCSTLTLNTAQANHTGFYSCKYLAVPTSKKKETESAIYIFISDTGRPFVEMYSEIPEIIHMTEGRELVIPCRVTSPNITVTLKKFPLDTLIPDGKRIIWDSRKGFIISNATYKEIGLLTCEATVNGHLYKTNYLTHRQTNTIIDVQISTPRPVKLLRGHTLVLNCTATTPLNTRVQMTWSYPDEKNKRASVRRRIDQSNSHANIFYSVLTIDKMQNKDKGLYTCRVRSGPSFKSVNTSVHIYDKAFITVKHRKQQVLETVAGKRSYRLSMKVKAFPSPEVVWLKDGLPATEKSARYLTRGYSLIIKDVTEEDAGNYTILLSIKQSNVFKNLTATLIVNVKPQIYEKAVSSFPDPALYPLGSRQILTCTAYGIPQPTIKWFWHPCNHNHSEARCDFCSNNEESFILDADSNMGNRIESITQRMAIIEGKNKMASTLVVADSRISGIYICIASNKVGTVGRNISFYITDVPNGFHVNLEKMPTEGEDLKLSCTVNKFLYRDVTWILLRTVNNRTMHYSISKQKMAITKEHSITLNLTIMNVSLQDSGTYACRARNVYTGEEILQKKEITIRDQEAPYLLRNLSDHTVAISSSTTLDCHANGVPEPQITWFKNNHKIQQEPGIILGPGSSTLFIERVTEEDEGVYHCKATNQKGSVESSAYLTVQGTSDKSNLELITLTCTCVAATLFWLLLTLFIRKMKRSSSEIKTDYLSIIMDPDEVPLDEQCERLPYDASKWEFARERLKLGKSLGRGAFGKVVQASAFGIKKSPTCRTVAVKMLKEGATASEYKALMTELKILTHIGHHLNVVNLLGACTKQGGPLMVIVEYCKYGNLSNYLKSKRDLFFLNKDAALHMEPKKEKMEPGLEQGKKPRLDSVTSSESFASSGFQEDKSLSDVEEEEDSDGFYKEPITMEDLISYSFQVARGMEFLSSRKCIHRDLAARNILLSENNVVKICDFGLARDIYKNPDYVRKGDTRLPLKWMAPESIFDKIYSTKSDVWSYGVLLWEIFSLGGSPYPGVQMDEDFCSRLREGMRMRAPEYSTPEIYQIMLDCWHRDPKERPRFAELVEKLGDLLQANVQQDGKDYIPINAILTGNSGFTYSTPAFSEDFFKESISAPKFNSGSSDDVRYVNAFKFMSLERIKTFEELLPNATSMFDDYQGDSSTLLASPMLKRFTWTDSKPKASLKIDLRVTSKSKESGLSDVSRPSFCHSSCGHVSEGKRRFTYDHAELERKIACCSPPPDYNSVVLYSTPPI

The term IC50 denotes the midpoint of a concentration-inhibition curve. In general, solubility refers to the concentration that dissolves in the medium under given conditions. On to `COc1cc(COc2nsc(NC(=O)NCCCCN3CCCC3)c2C(N)=O)cc(OC)c1` [Compound T006, 3-((3,5-dimethoxybenzyl)oxy)-5-(3-(4-(pyrrolidin-1-yl)butyl)ureido)isothiazole-4-carboxamide], for which the 50% inhibitory concentration (IC50) turned out to be 35 µM on EGFR and 0.0474 µM on VEGFR2. In series [1], this compound gave a solubility at 8 h of 1.17 mg/mL (≈ 2450 µM).
`NC(=O)c1c(OCc2ccc3c(c2)OCO3)nsc1NC(=O)NCCCCN1CCCC1` [Compound T007, 3-(benzo[d][1,3]dioxol-5-ylmethoxy)-5-(3-(4-(pyrrolidin-1-yl)butyl)ureido)isothiazole-4-carboxamide]: the IC50 came out at 0.475 µM at TIE2 and 0.043 µM at VEGFR2. The compound also registered a solubility at 8 h in series [1] of 0.608 mg/mL (≈ 1320 µM).
In turn, `Cn1nc(COc2nsc(NC(=O)NCCCCN3CCCC3)c2C(N)=O)cc1Br` [Compound T022, 3-((5-bromo-1-methyl-1H-pyrazol-3-yl)methoxy)-5-(3-(4-(pyrrolidin-1-yl)butyl)ureido)isothiazole-4-carboxamide] showed a solubility at 8 h in series [1] of 1.29 mg/mL (≈ 2570 µM).
For `NC(=O)c1c(OCc2ccc(OC(F)F)c(F)c2)nsc1NC(=O)NCCCCN1CCCC1` [Compound T027, 3-((4-(difluoromethoxy)-3-fluorobenzyl)oxy)-5-(3-(4-(pyrrolidin-1-yl)butyl)ureido)isothiazole-4-carboxamide], the solubility at 8 h in series [1] was determined as 0.478 mg/mL (≈ 953 µM). For the same compound, the fraction unbound at 2 h, 2 μM in the series on melanin came out at 0.0421.
As to `COc1cccc(COc2nsc(NC(=O)NCCCCN3CCCC3)c2C(N)=O)c1F` [Compound T030, 3-((2-fluoro-3-methoxybenzyl)oxy)-5-(3-(4-(pyrrolidin-1-yl)butyl)ureido)isothiazole-4-carboxamide], the IC50 came to 21.8 µM at EGFR and 0.0348 µM on VEGFR2. This compound came in with a solubility at 8 h in series [1] of 1.52 mg/mL (≈ 3260 µM). Moreover, the fraction unbound at 2 h, 2 μM with melanin was determined as 0.0232.
With `CNC(=O)c1cccc(COc2nsc(NC(=O)NCCCCN3CCCC3)c2C(N)=O)c1` [Compound T049, 3-((3-(methylcarbamoyl)benzyl)oxy)-5-(3-(4-(pyrrolidin-1-yl)butyl)ureido)isothiazole-4-carboxamide], the IC50 came to 0.0216 µM on VEGFR1, 7.56 µM at TIE2 and 0.0198 µM at VEGFR2. In series [1], this compound displayed a solubility at 8 h of 2.31 mg/mL (≈ 4880 µM).
In the case of `NC(=O)c1c(OCc2cccc(C(=O)NC3CC3)c2)nsc1NC(=O)NCCCCN1CCCC1` [Compound T056, 3-((3-(cyclopropylcarbamoyl)benzyl)oxy)-5-(3-(4-(pyrrolidin-1-yl)butyl)ureido)isothiazole-4-carboxamide], the IC50 on VEGFR1 came out at 0.00333 µM; on VEGFR3 it was 0.0132 µM; on EGFR, 50.6 µM; on VEGFR2, 0.00469 µM. Also, the solubility at 8 h in series [1] is 2 mg/mL (≈ 4000 µM). The fraction unbound at 2 h, 2 μM with melanin was 0.0183.
Take `NC(=O)c1c(OCc2cccc(C(=O)NC3CC3)c2)nsc1NC(=O)NCCCN1CCCC1` [Compound T067, 3-((3-(cyclopropylcarbamoyl)benzyl)oxy)-5-(3-(3-(pyrrolidin-1-yl)propyl)ureido)isothiazole-4-carboxamide]: the concentration for half-maximal inhibition (IC50) is 0.00943 µM on VEGFR1, 0.0301 µM on VEGFR3, greater than 60 µM at EGFR and 0.00886 µM on VEGFR2. The compound further registered a solubility at 8 h in series [1] of 0.977 mg/mL (≈ 2010 µM).
Regarding `NC(=O)c1c(OCc2ccc3c(c2)COC3)nsc1NC(=O)NCCCCN1CCCC1` [Compound T072, 3-((1,3-dihydroisobenzofuran-5-yl)methoxy)-5-(3-(4-(pyrrolidin-1-yl)butyl)ureido)isothiazole-4-carboxamide], the IC50 at EGFR is 43.5 µM. The compound also displayed a solubility at 8 h in series [1] of 2.06 mg/mL (≈ 4480 µM). In addition, the fraction unbound at 2 h, 2 μM in the series with melanin was 0.0196.
In turn, `NC(=O)c1c(OCc2ccc3c(c2F)OCC3)nsc1NC(=O)NCCCCN1CCCC1` [Compound T074, 3-((7-fluoro-2,3-dihydrobenzofuran-6-yl)methoxy)-5-(3-(4-(pyrrolidin-1-yl)butyl)ureido)isothiazole-4-carboxamide] showed a solubility at 8 h in series [1] of 0.133 mg/mL (≈ 278 µM). Besides, the fraction unbound at 2 h, 2 μM in the series with melanin was found to be 0.0462. Also, the IC50 on VEGFR2 is 0.0265 µM.
Take `NC(=O)c1c(OCc2ccc3c(c2)OCC3)nsc1NC(=O)NCCC1CCN(C2CC2)CC1` [Compound T083, 5-[2-(1-cyclopropyl-4-piperidyl)ethylcarbamoylamino]-3-(2,3-dihydrobenzofuran-6-ylmethoxy)isothiazole-4-carboxamide]: the IC50 came to 0.0256 µM on VEGFR1; 0.0223 µM at VEGFR3; 0.164 µM on TIE2; 18.1 µM at EGFR; 0.0127 µM at VEGFR2. Moreover, in the series on melanin, the fraction unbound at 2 h, 2 μM came to 0.0749.
Take `NC(=O)c1c(OCc2cc(F)cc(C(=O)NC3CC3)c2)nsc1NC(=O)NCCCCN1CCCC1` [Compound T085, 3-[[3-(cyclopropylcarbamoyl)-5-fluoro-phenyl]methoxy]-5-(4-pyrrolidin-1-ylbutylcarbamoylamino)isothiazole-4-carboxamide]: the IC50 on VEGFR1 is 0.00495 µM; on VEGFR3, 0.0106 µM; at TIE2, 4.59 µM; at EGFR it was greater than 60 µM; on VEGFR2, 0.0017 µM. Further, in the series on melanin, the fraction unbound at 2 h, 2 μM came to 0.0612.
For `CN1CCC(CCNC(=O)Nc2snc(OCc3cc(F)c4c(c3)OCC4)c2C(N)=O)CC1` [Compound T089, 3-((4-fluoro-2,3-dihydrobenzofuran-6-yl)methoxy)-5-(3-(2-(1-methylpiperidin-4-yl)ethyl)ureido)isothiazole-4-carboxamide], the IC50 at VEGFR1 is 0.0135 µM; at VEGFR3 it was 0.0099 µM; on TIE2, 0.135 µM; on EGFR, 15.1 µM; at VEGFR2 it was 0.00677 µM. Also, in the series with melanin, the fraction unbound at 2 h, 2 μM was 0.0235.
Consider `CCNC(=O)c1ccc(F)c(COc2nsc(NC(=O)NCCC3CCN(CCF)CC3)c2C(N)=O)c1` [Compound T127, 3-[[5-(ethylcarbamoyl)-2-fluoro-phenyl]methoxy]-5-[2-[1-(2-fluoroethyl)-4-piperidyl]ethylcarbamoylamino]isothiazole-4-carboxamide], for which the IC50 was found to be 0.241 µM at TIE2 and 0.003 µM at VEGFR2. The compound also came in with a solubility at 8 h in series [1] of 1.64 mg/mL (≈ 3040 µM). Also, the fraction unbound at 2 h, 2 μM in the series with melanin is 0.0362.
Turning to `NC(=O)c1c(OCc2cc(C(=O)NC3CC3)cc(F)c2F)nsc1NC(=O)NCCCCN1CCCC1` [Compound T133, 3-[[5-(cyclopropylcarbamoyl)-2,3-difluoro-phenyl]methoxy]-5-(4-pyrrolidin-1-ylbutylcarbamoylamino)isothiazole-4-carboxamide], the IC50 was 21.5 µM on EGFR and 0.0005 µM on VEGFR2. Also, the solubility at 8 h in series [1] stood at 0.757 mg/mL (≈ 1410 µM).
Regarding `NC(=O)c1c(OCc2ccc(F)c(C(=O)NC3CC3)c2)nsc1NC(=O)NCCCN1CC[C@H](F)C1` [Compound T152, 3-[[3-(cyclopropylcarbamoyl)-4-fluoro-phenyl]methoxy]-5-[3-[(3S)-3-fluoropyrrolidin-1-yl]propylcarbamoylamino]isothiazole-4-carboxamide], the IC50 was determined as 0.00225 µM at VEGFR1, 0.0128 µM on VEGFR3, 24 µM at EGFR and 0.00353 µM at VEGFR2. Besides, in series [1], the solubility at 8 h was determined as 0.815 mg/mL (≈ 1560 µM).
